Experimental data from article PMC8657723, “Novel Pituitary Actions of TAC4 Gene Products in Teleost” (International Journal of Molecular Sciences, 2021).

Each compound was assayed on grass carp pituitary cells (assay: Receptor antagonist / pathway inhibitor co-treatment on HK2-induced mRNA expression in grass carp pituitary cells). Conditions: inhibitor 1 μM with HK2 1 μM, 24 h co-treatment.
Assay type: cell-based, grass carp (Ctenopharyngodon idellus)
Protocol: In this experiment, a pharmacological approach was used to clarify the receptor specificity for SLα and PRL regulation by HK2. Pituitary cells were incubated for 24 h with grass carp HK2 (1 μM) with simultaneous treatment of the NK1R antagonist Rolaptiant (10 μM) or NK3R antagonist SB222200 (10 μM), respectively.
Figure 7 The receptor specificity and signal transduction for PRL and SLα regulation by HK2 in grass carp pituitary cells. (A) Effects of NKR subtype-specific antagonists on HK2-induced PRL and SLα mRNA expression. Pituitary cells were challenged for 24 h with grass carp HK2 (1 μM) in the presence or absence of the NK1R antagonist Rolaptiant (10 μM) or NK3R antagonist SB22200 (10 μM), respectively. (B) Effects of 24-h co-treatment with AC inhibitor MDL12330A (10 μM) or PKA inhibitor H89 (10 μM) on HK2-induced PRL and SLα mRNA expression. (C) Effects of 24-h co-treatment with PLC inhibitor U73122, PKC inhibitor GF109203X (10 μM), or IP3 receptor blocker 2-APB (10 μM) on HK2-induced PRL and SLα mRNA expression. (D) Effects of 24-h co-treatment with the VSCC inhibitor nifedipine (10 μM), CaM antagonist calmidazolium (1 μM) or CaMK-II blocker KN62 (10 μM) on HK2-induced PRL and SLα mRNA expression. After drug treatment, the total RNA of the cells was extracted by the Trizol method, and the expression of various genes was detected by RT-PCR. Data presented were expressed as mean ± SEM, and the differences between groups were significant at p-value < 0.05 by labeling diverse letters.
Figure 8 The receptor specificity and signal transduction for CART2, NMB1, and UTS1 regulation by HK2 in grass carp pituitary cells. (A) The pituitary cells were treated for 24 h with grass carp HK2 (1 μM) in the presence or absence of NK1R antagonist Rolaptiant (10 μM) or NK3R antagonist SB222200 (10 μM). (B) Effects of 24-h co-treatment with an AC inhibitor MDL12330A (10 μM) or PKA inhibitor H89 (10 μM) on HK2-induced CART2, UTS1, or NMB1 mRNA expression. (C) Effects of 24h co-treatment with a PLC inhibitor U73122, PKC inhibitor GF109203X (10 μM), or IP3 receptor blocker 2-APB (10 μM) on HK2-induced CART2, UTS1 or NMB1 mRNA expression. (D) Effects of 24-h co-treatment with the VSCC inhibitor nifedipine (10 μM), CaM antagonist calmidazolium (1 μM), or CaMK-II blocker KN62 (10 μM) on HK2-induced CART2, UTS1 or NMB1 mRNA expression.
For Clc1ccc(C(c2ccc(Cl)cc2)n2cc[n+](CC(OCc3ccc(Cl)cc3Cl)c3ccc(Cl)cc3Cl)c2)cc1 (stereo not drawn) [calmidazolium], the “effect on HK2-induced CART2 mRNA expression” value was “suppressed/totally abolished”, the “effect on HK2-induced NMB1 mRNA expression” value was “suppressed/totally abolished” and the “effect on HK2-induced PRL mRNA expression” value was “suppressed or totally abolished”. For the same compound, the “effect on HK2-induced SLα mRNA expression” value was “suppressed or totally abolished” and the “effect on HK2-induced UTS1 mRNA expression” value was “suppressed/totally abolished”.

Same assay, conditions: inhibitor 10 μM with HK2 1 μM, 24 h co-treatment
In the case of COc1ccc2c(c1)CC[C@@H]1[C@@H]2CC[C@]2(C)[C@@H](NCCCCCCN3C(=O)C=CC3=O)CC[C@@H]12 [U73122], the “effect on HK2-induced CART2 mRNA expression” value was “effective in blocking”, the “effect on HK2-induced NMB1 mRNA expression” value was “effective in blocking” and the “effect on HK2-induced PRL mRNA expression” value was “totally abolished”. The “effect on HK2-induced SLα mRNA expression” value was “totally abolished” and the “effect on HK2-induced UTS1 mRNA expression” value was “effective in blocking”. For Cl.c1ccc(C2CCCC2NC2=NCCCCCCCCCCC2)cc1 (stereo not drawn) [MDL12330A], the “effect on HK2-induced CART2 mRNA expression” value was “abolished”, the “effect on HK2-induced NMB1 mRNA expression” value was “abolished” and the “effect on HK2-induced PRL mRNA expression” value was “effective in blocking”. For the same compound, the “effect on HK2-induced SLα mRNA expression” value was “effective in blocking” and the “effect on HK2-induced UTS1 mRNA expression” value was “abolished”. CN([C@@H](Cc1ccc(OS(=O)(=O)c2cccc3cnccc23)cc1)C(=O)N1CCN(c2ccccc2)CC1)S(=O)(=O)c1cccc2cnccc12 [KN62] was tested, and the “effect on HK2-induced CART2 mRNA expression” value was “suppressed/totally abolished”, the “effect on HK2-induced NMB1 mRNA expression” value was “suppressed/totally abolished” and the “effect on HK2-induced PRL mRNA expression” value was “suppressed or totally abolished”. For the same compound, the “effect on HK2-induced SLα mRNA expression” value was “suppressed or totally abolished” and the “effect on HK2-induced UTS1 mRNA expression” value was “suppressed/totally abolished”. In the case of CN(C)CCCn1cc(C2=C(c3c[nH]c4ccccc34)C(=O)NC2=O)c2ccccc21 [GF109203X], the “effect on HK2-induced CART2 mRNA expression” value was “effective in blocking”, the “effect on HK2-induced NMB1 mRNA expression” value was “effective in blocking” and the “effect on HK2-induced PRL mRNA expression” value was “totally abolished”. For the same compound, the “effect on HK2-induced SLα mRNA expression” value was “totally abolished” and the “effect on HK2-induced UTS1 mRNA expression” value was “effective in blocking”. With O=S(=O)(NCCNC/C=C/c1ccc(Br)cc1)c1cccc2cnccc12 [H89] the “effect on HK2-induced CART2 mRNA expression” value was “abolished”, the “effect on HK2-induced NMB1 mRNA expression” value was “abolished” and the “effect on HK2-induced PRL mRNA expression” value was “effective in blocking”. The “effect on HK2-induced SLα mRNA expression” value was “effective in blocking” and the “effect on HK2-induced UTS1 mRNA expression” value was “abolished”. In the case of NCCOB(c1ccccc1)c1ccccc1 [2-APB], the “effect on HK2-induced CART2 mRNA expression” value was “effective in blocking”, the “effect on HK2-induced NMB1 mRNA expression” value was “effective in blocking” and the “effect on HK2-induced PRL mRNA expression” value was “totally abolished”. For the same compound, the “effect on HK2-induced SLα mRNA expression” value was “totally abolished” and the “effect on HK2-induced UTS1 mRNA expression” value was “effective in blocking”. With COC(=O)C1=C(C)NC(C)=C(C(=O)OC)C1c1ccccc1[N+](=O)[O-] [nifedipine] the “effect on HK2-induced CART2 mRNA expression” value was “suppressed/totally abolished”, the “effect on HK2-induced NMB1 mRNA expression” value was “suppressed/totally abolished” and the “effect on HK2-induced PRL mRNA expression” value was “suppressed or totally abolished”. For the same compound, the “effect on HK2-induced SLα mRNA expression” value was “suppressed or totally abolished” and the “effect on HK2-induced UTS1 mRNA expression” value was “suppressed/totally abolished”. With C[C@@H](OC[C@@]1(c2ccccc2)CC[C@]2(CCC(=O)N2)CN1)c1cc(C(F)(F)F)cc(C(F)(F)F)c1 [Rolaptiant] the “effect on HK2-induced NMB1 mRNA expression” value was “not with the NK1R antagonist Rolaptiant”, the “effect on HK2-induced PRL mRNA expression” value was “could not be totally abolished” and the “effect on HK2-induced SLα mRNA expression” value was “only partially block”. In the case of CC[C@H](NC(=O)c1c(C)c(-c2ccccc2)nc2ccccc12)c1ccccc1 [SB222200], the “effect on HK2-induced CART2 mRNA expression” value was “totally abolished”, the “effect on HK2-induced NMB1 mRNA expression” value was “totally abolished” and the “effect on HK2-induced PRL mRNA expression” value was “could not be totally abolished”. For the same compound, the “effect on HK2-induced SLα mRNA expression” value was “totally blocked” and the “effect on HK2-induced UTS1 mRNA expression” value was “totally abolished”.
